The source of these data is patent US6677473B1, “Plasminogen activator inhibitor antagonists” (Corvas International INC, priority 1999, dated 2004).

The target in the assay is T1, Human recombinant PAI-1 (Homo sapiens, UniProt P05121).
T1 construct: made in house; host or cells: E. coli
Nature of the assay: Chromogenic assay for plasminogen activator inhibitor type-1 (PAI-1) antagonism (tPA / glu-plasminogen / Spectrozyme PL, OD405). In kind it is biochemical. Conditions: determined by comparison with control reactions; assay variant (#1-#4) not given; read-out: IC50 for PAI antagonist activity. As for the experimental part: PAI-1 antagonist assays were performed in a buffer containing Tris, 0.05 mol/L, pH 7.4, 100 mmol/L NaCl, 1 mmol/L EDTA, and 0.01% Tween 80. Human recombinant PAI-1 purified from E coli. and human recombinant tPA were diluted into this standard assay buffer at concentrations of approximately 500-600 ng/mL and 100 ng/mL, respectively. PAI-1 antagonists were dissolved first in DMSO at a concentration of approximately 5 mg/mL, and these solutions were then diluted into the standard reaction buffer to achieve a final compound concentration of 1 mg/mL. Native, purified human glu-plasminogen was purchased from Boehringer Mannheim and was supplied as a lyophilized powder, which was first reconstituted in sterile water to a concentration of 55 μmol/L and then diluted to a concentration of 0.825 μmol/L in standard assay buffer. The chromogenic substrate Spectrozyme PL (H—D-Norleucyl-hexahydrotyrosyl-lysine-p-nitroanilide, American Diagnostica) was prepared as a stock solution with a concentration of 2.5 mmol/L in sterile water. Human fibrin monomer (DESAFIB) was purchased from American Diagnostica and was supplied as a lyophilized powder, which was reconstituted in standard assay buffer at a concentration of 100 μg/mL.
The chromogenic assay utilized the reagents described above. Fresh reagent solutions were prepared prior to each assay. Assays were performed in individual wells of standard 96 well mocrotiter assay plates. Standard assays were prepared as follows:
The following reagents were combined:
The plate was agitated or the individual 25 μL mixtures were pipetted up and down once or twice to assure proper mixing of reagents. The resulting mixture was incubated 15 minutes at room temperature (approximately 21° C.).
The following was added to each reaction:
The microtiter assay plate was then placed into a Molecular Devices Thermomax or Spectromax Plate Reader, agitated to assure thorough mixing of reagents, and incubated at 37° C. The OD405 of each reaction mixture is measured every minute for 1 hour. Control reactions which lack PAI-1; PAI-1 and test compound; t-PA; or t-PA, PAI-1 and test compound were performed in each assay.
Assay #2 was performed exactly as assay #1 except that a 10 minute preincubation of the test compound and PAI-1 was performed at room temperature prior to the addition of t-PA.
Assay #3 was performed exactly as assay #1 except that a wide range of concentrations of each test compound, depending upon the potency of the individual compound, was used in the assay.
Assay #4 was performed exactly as assay #2 except that a wide range of concentrations of each test compound, depending upon the potency of the individual compound, was used in the assay.
The generated plasmin cleaved the chromogenic substrate, Spectrozyme PL, producing pNA (para-nitroaniline). The pNA was detected spectrophotometrically at 405 nm.
The degree of inhibition at various concentrations and/or the IC50 value for the compounds provided herein was determined by comparison with control reactions. The IC50 for PAI antagonist activity for each of the compounds specifically disclosed herein has been measured.

Usually IC50 stands for the midpoint of a concentration-inhibition curve.

Where only a bound is given, the exact number is not on record here.

T1 sequence (P05121 24-402): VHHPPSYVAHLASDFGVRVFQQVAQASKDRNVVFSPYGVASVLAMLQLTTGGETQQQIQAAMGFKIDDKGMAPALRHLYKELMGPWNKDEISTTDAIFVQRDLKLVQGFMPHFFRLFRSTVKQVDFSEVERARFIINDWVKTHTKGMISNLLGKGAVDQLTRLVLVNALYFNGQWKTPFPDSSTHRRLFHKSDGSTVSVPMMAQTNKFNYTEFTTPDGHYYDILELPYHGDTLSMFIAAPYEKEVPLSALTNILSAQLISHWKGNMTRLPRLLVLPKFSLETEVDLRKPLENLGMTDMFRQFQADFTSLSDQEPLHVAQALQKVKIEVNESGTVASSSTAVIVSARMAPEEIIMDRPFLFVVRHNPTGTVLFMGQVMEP

In the case of `Cc1ccccc1COc1c(I)cc(C(=O)O)cc1I` [3,5-diiodo-4-(2-methylbenzyloxy)benzoic acid], the 50% inhibitory concentration (IC50) is below 50 µM.

In the case of `O=C(c1ccccc1)c1cc(I)c(O)c(I)c1` [(4-hydroxy-3,5-diiodophenyl)-phenyl-methanone], the half-inhibitory concentration (IC50) was below 100 µM.

Turning to `O=C(O)CCc1cc(I)c(OCc2ccc(I)cc2)c(I)c1` [3-[3,5-diiodo-4-(4-iodobenzyloxy)phenyl]propionic acid], the concentration for half-maximal inhibition (IC50) was below 10 µM.

As to `O=C(O)c1cc(I)c(OCc2c(F)cccc2F)c(I)c1` [4-(2,6-difluorobenzyloxy)-3,5-diiodobenzoic acid], the IC50 is below 100 µM.

Turning to `O=C(O)c1cc(I)c(OCc2ccc(I)cc2)c(I)c1` [3,5-diiodo-4-(4-iodobenzyloxy)benzoic acid], the IC50 was below 10 µM.

Turning to `O=C(O)CCCCCCCCCCOc1c(I)cc(C(=O)O)cc1I` [4-(10-carboxydecyloxy)-3,5-diiodobenzoic acid], the 50% inhibitory concentration (IC50) is below 50 µM.

With `O=C(O)COc1c(I)cc(C(=O)c2cc(I)c(O)c(I)c2)cc1I` [[4-(4-hydroxy-3,5-diiodobenzoyl)-2,6-diiodophenoxy]acetic acid], the IC50 was below 100 µM.

With `O=C(C(=O)c1cc(I)c(O)c(I)c1)c1cc(I)c(O)c(I)c1` [1,2-bis-(4-hydroxy-3,5-diiodophenyl)ethane-1,2-dione], the IC50 was below 50 µM.

For the molecule `O=C(c1cc(I)c(O)c(I)c1)c1cc(I)c(OCc2cccc(I)c2)c(I)c1` [[3,5-diiodo-4-(3-iodobenzyloxy)phenyl]-(4-hydroxy-3,5-diiodophenyl)methanone], the 50% inhibitory concentration (IC50) was below 10 µM.

Take `O=C(c1cc(I)c(O)c(I)c1)c1cc(I)c(O)c(I)c1` [bis(4-hydroxy-3,5-diiodophenyl)methanone]: the IC50 was below 50 µM.
